Results from paper PMC9334755 (Cancer Biology & Medicine, 2021).

Columns and labels:
BTK wild-type = target: T1, BTK wild-type (Homo sapiens, UniProt Q06187); assay: Fluorescent labelling of wild-type BTK in HEK293 cells; type: cell-based; details: 1 h
T1 construct: expressed in transfected cells; host or cells: HEK293 (methods list HEK293T)
From the text: (§1) The antibodies to β-actin (5125), poly(ADP-ribose) polymerase (PARP) (9532S), cleaved caspase-3 (9661S), BTK (8547), PLCγ2(55512), ERK1/2 (9107), phospho-PLCγ2 (Tyr1217) (3871), phospho-BTK (Tyr223) (87457), and ERK1/2 pT202/pY204 (4377) were purchased from Cell Signaling Technology. An Annexin V-PE Apoptosis Detection Kit (555763), and PE mouse anti-human CD69 (555531), PE mouse anti-human CD3 (555340), and PE mouse anti-human CD19 (561741) were purchased from BD Bioscience. Dynabeads® Human T-Activator CD3/CD28 (11161D) was purchased from Life Technology. Goat anti-human IgM F(ab)2 (2022) was purchased from SouthernBiotech. An HTRF® KinEASE™-TK Kit (62TK0PEC) was purchased from Cisbio. […]
(§2) Cells were treated as indicated before the addition of a fluorescent probe (FL-SY-1530). […] After scanning, the gels were detected with Western blot.
(§3) Figure 2 Irreversible targeting of BTK by SY-1530. […] (B) The content of the compounds was measured with LC-MS/MS after incubation with BTK for 4 h. […] (D) DOHH2 cells were treated with various concentrations of FL-SY-1530 for 1 h, after which cells were lysed and analyzed by SDS-PAGE with the indicated antibodies and fluorescent gel scanning with a Typhoon imaging system. […] (F) HEK293 cells expressing wild-type or C481A mutant BTK were treated with FL-SY-1530 or FL-ibrutinib for 1 h, and the cells were then lysed and analyzed. […]

BTK C481A mutant = target: T2, BTK C481A mutant (Homo sapiens, UniProt Q06187, C481A); assay: Fluorescent labelling of BTK C481A mutant in HEK293 cells; type: cell-based; details: 1 h
T2 construct: expressed in transfected cells; host or cells: HEK293 (methods list HEK293T)
From the text: as §1, §2, §3

TMD8 = assay: Cell viability assay (CellTiter-Blue), TMD8; type: cell-based, human; details: Homo sapiens, TMD8, read-out: IC50 (nM), growth of TMD8
Protocol: (§4) Cells were seeded on 96-well plates (9,000 cells/well), cultured at 37 °C in 5% CO2 overnight, and incubated with different concentrations of compounds for 3 or 7 days. Then the cells were stained with CellTiter-Blue® reagent (Promega) for 4 h at 37 °C. The fluorescence signals were detected with a FlexStation 3, and the IC50 values of each compound were determined with GraFit software (Version 6.0).

Pfeiffer = assay: Cell viability assay (CellTiter-Blue), Pfeiffer; type: cell-based, human; details: Homo sapiens; Pfeiffer cells; read-out: IC50 (nM), growth of Pfeiffer
Protocol: as §4

B cell = assay: Cell viability assay (CellTiter-Blue), human B cells; type: cell-based; details: B-cell, read-out: IC50 (nM), growth of B cell
Protocol: as §4
(§5) CD19^+ B (>80% purity) and CD3^+ T (>90% purity) cells were purified with human B cell enrichment cocktail and human T cell enrichment cocktail (Stem Cell Technology), respectively. Cells were seeded on 12-well plates and incubated with different concentrations of BTK inhibitors for 1 h. B cells were stimulated with 50 µg/mL anti-human IgM F(ab′)2, and T cells were stimulated with 50 µg/mL anti-CD3/CD28 beads overnight. In the washout groups, the cell medium containing the indicated inhibitors was replaced with fresh medium before stimulation. Then cells were then incubated with anti-human CD69 for 1 h and analyzed with a Guava flow cytometer.

T cell = assay: Cell viability assay (CellTiter-Blue), human T cells; type: cell-based; details: T-cell, read-out: IC50 (nM), growth of T cell
Protocol: as §4, §5

human peripheral B cells = assay: CD69 up-regulation in B cells after anti-IgM stimulation; type: cell-based
Protocol: as §5
(§6) Figure 4 SY-1530 blocks B-cell receptor signaling and induces apoptosis. (A–D) Human B and T cells were purified and incubated with different concentrations of BTK inhibitors for 1 h. B cells were stimulated with 50 μg/mL anti-human IgM F(ab′)2, and T cells were stimulated with 50 μg/mL anti-CD3/CD28 beads overnight directly or after washout of BTK inhibitors before stimulation. The percentage of CD69 positive cells was analyzed by flow cytometry. Data are shown as the mean ± SEM (n = 3). Statistical analysis was performed with Student’s t-test (*P < 0.05, **P < 0.01, ***P < 0.001). (E) Pfeiffer cells and Romas cells were preincubated with different concentrations of compounds for 1 h, washed with PBS, and then stimulated with anti-IgM/anti-IgG (10 μg/mL) for 10 min. Cells were lysed and analyzed by Western blot with the indicated antibodies. (F) Pfeiffer cells were treated with various concentrations of SY-1530 for 24 h. The cells were stained with both PE-Annexin and 7-AAD and analyzed by flow cytometry. Data are shown as the mean ± SEM (n = 3). Statistical analysis was performed with Student’s t-test (*P < 0.05, **P < 0.01). (G) Pfeiffer cells were incubated with BTK inhibitors in the presence of z-VAD-fmk (caspase inhibitor) or DMSO for 24 h. Cells were lysed and analyzed with specific antibodies.

human peripheral T cells = assay: CD69 up-regulation in T cells after anti-CD3/CD28 stimulation; type: cell-based
Protocol: as §5, §6

TMD8 xenografts = assay: TMD8 tumor xenograft in SCID mice; type: in vivo
Protocol: TMD8 cells (1.0 × 10^7 cells in 100 µL of serum-free medium containing 40% Matrigel) were injected subcutaneously into SCID mice (6–8 weeks of age), and the tumor volume was monitored twice per week. […] The compounds were formulated in 0.5% methylcellulose containing 0.1% sodium lauryl sulfate. Tumor size and body weight were measured twice per week. All experiments were approved by the institutional animal care and use committee of Shouyao Holdings and were performed in accordance with the guidelines in the U.S. National Institutes of Health Guide for the Care and Use of Laboratory Animals (Approval No. CTA-2015063).
Figure 5 SY-1530 inhibits B-cell malignancy in vivo. (A–D) TMD8 cells were injected subcutaneously into SCID mice (6–8 weeks of age; 8 mice per group). […] Tumor size (A) and body weight (B) were measured […]. On the last day, mice were sacrificed 2.5 h after administration. LC-MS/MS was performed to measure the concentration of SY-1530 in plasma (C), and tumor samples were collected and analyzed with Western blot (D). QD represents administration once daily. Data are shown as mean ± SEM. Statistical analysis was performed with two-way analysis of variance (*P < 0.05; **P < 0.01; ***P < 0.001). […] Tumor size (E), body weight (F), SY-1530 concentration in the plasma (G), and protein expression in tumors (H) were measured. Data are shown as mean ± SEM. Statistical analysis was performed with two-way analysis of variance (*P < 0.05; **P < 0.01; ***P < 0.001).

T2 sequence (Q06187 whole entry C481A): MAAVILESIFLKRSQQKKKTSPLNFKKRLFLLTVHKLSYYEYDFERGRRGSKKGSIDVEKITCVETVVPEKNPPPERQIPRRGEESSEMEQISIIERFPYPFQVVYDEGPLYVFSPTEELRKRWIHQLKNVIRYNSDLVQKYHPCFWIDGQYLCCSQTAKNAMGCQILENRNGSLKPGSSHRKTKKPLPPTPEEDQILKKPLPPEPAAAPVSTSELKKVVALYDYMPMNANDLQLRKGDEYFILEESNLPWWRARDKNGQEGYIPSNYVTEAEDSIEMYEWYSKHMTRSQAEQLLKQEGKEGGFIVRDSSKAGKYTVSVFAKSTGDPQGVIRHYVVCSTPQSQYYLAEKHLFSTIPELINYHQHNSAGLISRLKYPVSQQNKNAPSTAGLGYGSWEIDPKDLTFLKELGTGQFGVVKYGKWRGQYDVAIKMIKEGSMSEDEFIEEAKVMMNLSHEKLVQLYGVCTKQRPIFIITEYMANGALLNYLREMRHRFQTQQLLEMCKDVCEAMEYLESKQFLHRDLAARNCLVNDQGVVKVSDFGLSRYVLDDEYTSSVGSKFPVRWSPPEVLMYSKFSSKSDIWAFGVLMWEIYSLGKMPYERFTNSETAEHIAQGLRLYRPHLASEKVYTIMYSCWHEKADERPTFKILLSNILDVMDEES
T1 sequence (Q06187 whole entry): as the sequence (Q06187 whole entry C481A) above, with A481C counted along it

| Binding of labelled compound to wild-type BTK (BTK wild-type) | Binding of labelled compound to BTK C481A mutant (BTK C481A mutant) | Compound | IC50 (TMD8) | IC50 (Pfeiffer) | IC50 (B cell) | IC50 (T cell) | Up-regulation of CD69 in B cells after anti-IgM (human peripheral B cells; continuous exposure, 10 nM) | Up-regulation of CD69 in B cells after anti-IgM (human peripheral B cells; inhibitors washed out before BCR stimulation) | Up-regulation of CD69 in T cells (human peripheral T cells; after washout of BTK inhibitors) | CD69 up-regulation after T cell receptor stimulation (human peripheral T cells; continuous exposure, 10 µM) | Mouse bodyweight (TMD8 xenografts; BID groups) | Tumor growth versus vehicle treated group (TMD8 xenografts; BID, SY-1530 30 or 10 mg/kg, ibrutinib 30 mg/kg) |
| --- | --- | --- | --- | --- | --- | --- | --- | --- | --- | --- | --- | --- |
| bound the wild-type BTK | not the C481A mutant | CC1=CC(C)=[N+]2C1=Cc1ccc(CCC(=O)NCCN3CCN(CC=CC(=O)N4CCCC(n5nc(-c6ccc(Oc7ccccc7)cc6)c6c(N)ncnc65)C4)CC3)n1[B-]2(F)F (centres unmarked) [FL-ibrutinib, reference compound] | – | – | – | – | – | – | – | – | – | – |
| bound the wild-type BTK | not the C481A mutant | CC1=CC(C)=[N+]2C1=Cc1ccc(CCC(=O)NCCN3CCN(CC=CC(=O)N4CCC(n5nc(-c6ccc(Oc7ccccc7)cc6)c(C(N)=O)c5N)C4)CC3)n1[B-]2(F)F (centres unmarked) [FL-SY-1530] | – | – | – | – | – | – | – | – | – | – |
| – | – | C=CC(=O)N1CCC[C@@H](n2nc(-c3ccc(Oc4ccccc4)cc3)c3c(N)ncnc32)C1 [ibrutinib, reference compound] | 17.3 nM | 45.9 nM | 0.85 nM | 1000 to 10000 nM | completely abolished | blocked | not affected | significantly abrogated | moderate decrease | dramatically lower |
